Laboratory results: patent US20110105517A1, “THERAPEUTIC AGENT FOR AMYOTROPHIC LATERAL SCLEROSIS” (priority 2008, published 2011)
Structures can show the parent of a compound that is named as a salt.

What was measured:
HeLa cells = experiment: Cell viability assay 1: oxidative stress (menadione)-induced cell death in non-neuronal cells; type: cell-based; details: pre-treatment 2.5, 5, 10 μM for 24 h; menadione 20-80 μM for 4 h; AlamarBlue; versus DMSO alone; FIG. 1
Experimental: HeLa cells (1.0×10^6) were plated in 75 cm^2 flask and were cultured in the presence of 5% CO2 at 37° C. for 16 hours. Bromocriptine mesylate in DMSO was then added to the medium at the final concentrations of 2.5, 5 and 10 μM. The amount of DMSO used in each samples were adjusted to that used in the 10 μM sample. Cells were cultured for additional 24 hours (bromocriptine mesylate treatment). As a negative control, DMSO without bromocriptine mesylate was added. Menadione was then added to the HeLa cells treated with bromocriptine mesylate at the final concentrations of 0, 20, 40, 60 and 80 μM and the cells were further incubated in 5% CO2, at 37° C. (oxidative stress treatment). As a negative control, 0.1% Triton X-100/DMEM/10% FBS was added in place of menadione. After 4 hours of oxidative stress treatment, the medium was replaced with that containing AlamarBlue, and the cell culture was resumed in 5% CO2, at 37° C. After 16 hours of incubation, the number of viable cells was counted by measuring the fluorescence at excitation wave length 530 nm/emission wave length 580 nm, using the fluorescence plate reader.
The X-axis of the graph represents menadione concentration (μM), while the Y-axis of the graph represents cell viability (%). The Y-axis values under each condition are shown as viability relative to the no menadione treatment (0 μM) control which is set at 100%.

[1] = tested on: differentiated SH-SY5Y cells; experiment: Cell viability assay 2: oxidative stress (menadione)-induced cell death in differentiated neuronal cells; type: cell-based, human; details: retinoic acid-differentiated cells; pre-treatment 5, 10, 20, 40 μM for 24 h; menadione 20-50 μM for 4 h; AlamarBlue; versus DMSO alone; FIG. 2
Experimental: SH-SY5Y cells were suspended in DMEM supplemented with 10% FBS, were plated at 1.0×10^4 cells/well in 96 well microtiter plate, and were incubated in 5% CO2 at 37° C. for 24 hours. The medium was then replaced with DMEM supplemented with 10% FBS and 10 μM all-trans retinoic acid (RA) (DMEM/FBS/RA), and after 5 days, bromocriptine mesylate in DMSO was added to the medium at the final concentrations of 5, 10, 20 and 40 μM. The amount of DMSO used in each samples were adjusted to that used in the 40 μM sample. The cells were cultured for additional 24 hours (bromocriptine mesylate treatment). As a negative control, DMSO without bromocriptine mesylate was added. Menadione was then added to the SH-SY5Y cells treated either with DMSO alone or bromocriptine mesylate at the final concentrations of 0, 20, 30, 40, and 50 μM, and cultured in 5% CO2 at 37° C. (oxidative stress treatment). As a negative control, 0.1% Triton X-100/DMEM/10% FBS was added. After 4 hours of oxidative stress treatment, the medium was replaced with that containing AlamarBlue, and the cell culture was resumed in 5% CO2, at 37° C. After 16 hours of incubation, the number of viable cells was counted by measuring the fluorescence at excitation wave length 530 nm/emission wave length 580 nm, using the fluorescence plate reader. […]

ALS-SOD1^H46R mouse [2] = experiment: Efficacy test in vivo: motor function in vertical climb test; details: 10 mg/kg i.p. once a day from onset of symptoms; n=5; non-administered group deteriorated significantly; FIG. 3
Experimental: (§1) In this test, ALS-SOD1^H46R mouse carrying the mutation in the SOD1 gene (SOD1^H46R) (ALS1) was used. The mice were housed at 23° C. with a 12 hr light/dark cycle. Bromocriptine mesylate was suspended in 0.5% carboxymethylcellulose sodium (CMC-Na). The administration of bromocriptine mesylate was initiated when the neurological symptoms was first observed (first manifestation of the illness) in the ALS-SOD1^H46R mouse in the balance beam test. The dosage of bromocriptine mesylate was 10 mg or 1 mg per 1 kg of body weight in each of the animals, and administered by intraperitoneal injection once a day until the animals died (group treated with bromocriptine mesylate). As the negative control, the mice were administered with 0.5% CMC-Na (5 ml/kg) (group not treated with bromocriptine mesylate). Balance beam test (stainless beam: 50 cm long, 0.9 cm wide) was employed to evaluate the appearance of neurological symptoms. The evaluation of symptoms was carried out in 5 grades. Grade 3 was considered to be the first manifestation of the symptoms. The evaluation criteria used are shown below.
The motor functions of mice in bromocriptine mesylate administered group and non-administered group were evaluated by vertical climb test (stainless bar: 50 cm long, 0.9 cm wide). […] The best score among the 5 test results was recorded as the motor function value. […]

ALS-SOD1^H46R mouse [3] = experiment: Efficacy test in vivo: survival after the onset of the disease; details: i.p. once a day from onset, non-administered group 27.8±2.1 day, FIG. 4
Experimental: as §1

In the case of `CC(C)C[C@H]1C(=O)N2CCC[C@H]2[C@]2(O)O[C@](NC(=O)[C@@H]3C=C4c5cccc6[nH]c(Br)c(c56)C[C@H]4N(C)C3)(C(C)C)C(=O)N12` [bromocriptine mesylate], the “viabilities of HeLa cells exposed to oxidative stress by menadione” value (HeLa cells) is reported as “increased depending on the concentration of bromocriptine mesylate”, the “viabilities of SH-SY5Y cells exposed to oxidative stress by menadione” value [1] is reported as “increased depending on the concentration of bromocriptine mesylate” and the “motor function (vertical climb test) at 21 weeks of age” value (ALS-SOD1^H46R mouse [2]) is reported as “largely unchanged”. For the same compound, the “overall survival after the onset of the disease” value (ALS-SOD1^H46R mouse [3]; 1 mg/kg, n=4) was 35.3 ± 6.0 days and the “overall survival after the onset of the disease” value (ALS-SOD1^H46R mouse [3]; 10 mg/kg, n=5) was 38.0 ± 2.9 days.
